Columns and labels:
[1] = biological target: HA-GST-Rheb (GTP-γ-S loaded) activating mTORC1 (Homo sapiens (Human), UniProt Q15382); test: Rheb-dependent in vitro kinase assay (Rheb-IVK; LanthaScreen or Western readout); assay type: biochemical; conditions: Rheb-dependent in vitro kinase assay; read-out: IVK IC50
Rheb = Rheb (Homo sapiens (Human), UniProt Q15382); test: Affinity Selection Mass Spectrometry (ASMS); assay type: binding; conditions: affinity (R3/R0) in Affinity Selection Mass Spectrometry assay
Rheb, sequence (Q15382 1-169 limits assumed): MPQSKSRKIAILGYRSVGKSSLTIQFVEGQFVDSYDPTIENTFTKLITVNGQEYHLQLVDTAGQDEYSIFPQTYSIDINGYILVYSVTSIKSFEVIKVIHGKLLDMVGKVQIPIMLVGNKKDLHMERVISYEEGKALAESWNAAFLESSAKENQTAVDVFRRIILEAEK
Procedure: Method 2 (Affinity Selection Mass Spectrometry
Protein: Rheb (19 KDa) in the following buffer: 20 mM Tris, pH 8.0, 200 mM NaCl, 2 mM DTT, 5 mM MgCl2 was prepared as under.
Human Rheb protein (I-169) was purified from BL21 (DE3) E. coli using a His-Smt-Rheb expression vector. The cell paste was lysed in lysis buffer (50 mM HEPES pH 7.5, 0.5 M NaCl, 5% Glycerol, 1% CHAPS, EDTA free protease inhibitor tablets, lysozyme to 1 mg/mL, benzonase 250U), sonicated, and purified on a HiTrap Ni Chelating Column (GE Healthcare) using the following buffer: 50 mM HEPES pH 7.5, 0.5 M NaCl, 5% Glycerol, and imidazole increasing in concentration from 5 mM to 500 mM. The His-Smt tag was cleaved using a U1p1 enzyme and dialyzed into 50 mM HEPES pH 7.5, 0.5 M NaCl, 5% Glycerol. The resultant protein was again purified on a Ni Chelating column to remove the U1p1 enzyme and His-Smt tag and then purified by size exclusion chromatography on a Sephacryl S-100 26/60 column into the following final buffer: 20 mM NaPhos pH 7.0, 100 mM NaCl, 5 mM MgCl2, 2 mM TCEP.
Concentrations: 60 μM Rheb, 180 μM GDP and 2 μM of each compound,
Ultrafiltration Filter (Sartorius, Germany) MW cutoff: 10 KDa
• (a) Sample preparation: Prepare sample for each group in 1.5 mL microcentrifuge tube according to the experimental design, total volume 550 μL. In a standard ASMS experiment there are two groups: Protein plus (P+L+) and protein minus (P−L+). • (b) Transfer 50 μL from the 550 μL to a vial as R0 sample. Incubate the rest solution for 30 min at room temperature. Then transfer the 500 μL into an ultrafiltration filter tube and centrifuge at 12×10^3 rpm for ˜10 min, leave about 50 μL solution (otherwise adjust this time). • (c) Add incubation buffer to the ultrafiltration filter tube to about 500 μL. Stir gently and centrifuge mixtures as above, leave about 50 μL solution. • (d) Repeat the step c. Transfer the remaining 50 μL upper layer solution to a new vial as R^3 sample. Sample Extraction: Add 150 μL MeCN to denature the protein completely. Centrifuge at 12×10^3 rpm for 5 min. Transfer the supernatant into LC-MS auto sampler vials for LC-MS analysis (5 uL injection).
Waters Acquity UPLC system, Waters ACQUITY UPLC BEH C18 column (2.1×50 mm, 1.7 μM); Mobile phase A: 0.1% formic acid solution, B: MeCN; 0.3 mL/min, 5 μL injection, gradient elution (Table 5).
Waters Synapt G1 Q-TOF system, positive or negative ion scan modes; Capillary voltage: 3.0 kV; Method: MSE; Mass range: m/z=100-1000; Source temperature: 120° C.; Desolvation temperature: 400° C.; Collision voltage: 35 V; Sampling Cone: 35 V; Extraction Cone: 4.0 V; Cone Gas: 50 L/h; Desolvation Gas: 800 L/h.

HA-GST-Rheb (GTP-γ-S loaded) activating mTORC1, sequence (Q15382 1-181): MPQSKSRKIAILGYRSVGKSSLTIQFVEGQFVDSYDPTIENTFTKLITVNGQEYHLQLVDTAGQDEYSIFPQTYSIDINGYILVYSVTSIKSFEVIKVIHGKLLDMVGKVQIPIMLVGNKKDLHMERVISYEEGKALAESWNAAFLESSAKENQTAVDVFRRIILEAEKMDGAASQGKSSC

SMILES	IC50 [1]	ASMS (R3/R0) (Rheb)
CN(C)C(=O)c1ccc(Cn2c(C(=O)O)cc3c(Br)cc(SCc4ccc(Cl)c(Cl)c4)cc32)cc1 [I-18]	> 100 µM	B (an affinity (R3/R0) between 100% and 20%)
OCc1ccc(Cn2c(CO)cc3c(Br)cc(Oc4ccccc4)cc32)cc1 [I-166]	> 100 µM	B (an affinity (R3/R0) between 100% and 20%)
CN1CCC(CNC(=O)c2cc3c(Br)cc(Sc4ccc5ccccc5c4)cc3n2Cc2ccc(C(=O)N(C)C)cc2)CC1 [I-23]	> 100 µM	B (an affinity (R3/R0) between 100% and 20%)
O=C(O)c1cc2c(Sc3ccc(Oc4ccccc4)cc3)cc(Cl)cc2[nH]1 [I-118, 6-chloro-4-(4-phenoxyphenylthio)-1H-indole-2-carboxylic acid]	< 10 µM	B (an affinity (R3/R0) between 100% and 20%)
CN(C)C(=O)c1ccc(Cn2c(C(=O)O)cc3c(Cl)cc(Sc4ccc(Cl)c(Cl)c4)cc32)cc1 [I-75, 4-chloro-6-(3,4-dichlorophenylthio)-1-(4-(dimethylcarbamoyl)benzyl)-1H-indole-2-carboxylic acid]	< 10 µM	B (an affinity (R3/R0) between 100% and 20%)
Clc1cc2[nH]c(-c3ccncc3)nc2c(OCC2CCCCC2)c1Cl [I-348]	> 100 µM	B (an affinity (R3/R0) between 100% and 20%)
CN(C)C(=O)c1ccc(Cn2c(C(=O)O)cc3c(Br)nc(Sc4ccc(Cl)c(Cl)c4)cc32)cc1 [I-3, 4-bromo-6-(3,4-dichlorophenylthio)-1-(4-(dimethylcarbamoyl)benzyl)-1H-pyrrolo[3,2-c]pyridine-2-carboxylic acid]	10 to 100 µM	B (an affinity (R3/R0) between 100% and 20%)
O[C@@H]1CCC[C@H](COc2c(Cl)c(Cl)cc3[nH]c(-c4ccncc4)nc23)C1 [I-324, (1R,3S)-3-((5,6-dichloro-2-(pyridin-4-yl)-1H-benzo[d]imidazol-4-yloxy)methyl)cyclohexanol]	> 3 µM	B (an affinity (R3/R0) between 100% and 20%)
COCc1cc2c(Br)cc(Sc3ccc(Cl)c(Cl)c3)cc2n1Cc1ccc(C(=O)N(C)C)cc1 [I-34]	> 100 µM	B (an affinity (R3/R0) between 100% and 20%)
NCCn1c(CO)cc2c(Oc3ccccc3)cc(Cl)cc21 [I-168]	> 100 µM	C (an affinity (R3/R0)<20%)
COc1cccc(CCNC(=O)c2cc3c(Sc4ccc(Cl)cc4)cc(Cl)cc3[nH]2)c1 [I-144]	> 100 µM	B (an affinity (R3/R0) between 100% and 20%)
Clc1cc2nc(-c3ccnc(-c4ccccc4)c3)[nH]c2cc1Cl [I-368]	> 100 µM	B (an affinity (R3/R0) between 100% and 20%)
O=[N+]([O-])c1ccc(COc2cc3nc(CO)[nH]c3c(Cl)c2Cl)cc1 [I-329, (6,7-dichloro-5-(4-nitrobenzyloxy)-1H-benzo[d]imidazol-2-yl)methanol]	10 to 100 µM	A (an affinity (R3/R0)>100%)
OCc1nc2c(OCc3ccccc3)cc(Cl)cc2[nH]1 [I-493]	> 100 µM	C (an affinity (R3/R0)<20%)
CN1CC(NC(=O)c2cc3c(Sc4ccc(Cl)cc4)cc(Cl)cc3[nH]2)C1 [I-71, 6-chloro-4-(4-chlorophenylthio)-N-(1-methylazetidin-3-yl)-1H-indole-2-carboxamide]	< 10 µM	B (an affinity (R3/R0) between 100% and 20%)
O=C(Nc1ncc[nH]1)c1cc2c(Sc3ccc(Cl)cc3)cc(Cl)cc2[nH]1 [I-63]	> 100 µM	A (an affinity (R3/R0)>100%)
OCc1nc2cc(OCc3ccc(Cl)cc3)c(Cl)c(Cl)c2[nH]1 [I-375, (6,7-dichloro-5-(4-chlorobenzyloxy)-1H-benzo[d]imidazol-2-yl)methanol]	< 10 µM	A (an affinity (R3/R0)>100%)

SMILES	IC50 [1]	ASMS (R3/R0) (Rheb)
CN1CCC(NC(=O)c2cc3c(Sc4ccc(Cl)cc4)cc(Cl)cc3[nH]2)CC1 [I-80]	> 100 µM	B (an affinity (R3/R0) between 100% and 20%)
OCc1cc2c(Sc3cccc(OC(F)(F)F)c3)cc(Cl)cc2[nH]1 [I-122, (6-chloro-4-(3-(trifluoromethoxy)phenylthio)-1H-indol-2-yl)methanol]	< 10 µM	B (an affinity (R3/R0) between 100% and 20%)
CC(O)c1cc2c(Br)cc(Oc3ccccc3)cc2[nH]1 (centres unmarked) [I-218, 1-(4-bromo-6-phenoxy-1H-indol-2-yl)ethanol]	10 to 100 µM	B (an affinity (R3/R0) between 100% and 20%)
OCc1nc2c(OCC3CCCCC3)c(Cl)c(Cl)cc2[nH]1 [I-395, (5,6-dichloro-4-(cyclohexylmethoxy)-1H-benzo[d]imidazol-2-yl)methanol]	< 10 µM	A (an affinity (R3/R0)>100%)
O=C(O)c1cc2c(Br)cc(Sc3ccc(Cl)c(Cl)c3)cc2[nH]1 [I-139, 4-bromo-6-(3,4-dichlorophenylthio)-1H-indole-2-carboxylic acid]	< 10 µM	B (an affinity (R3/R0) between 100% and 20%)
CN1CCC[C@@H]1CNC(=O)c1ccc(-c2nc3cc(Cl)c(Cl)cc3[nH]2)cc1 [I-341]	> 100 µM	B (an affinity (R3/R0) between 100% and 20%)
Nc1cc(CCOc2c(Cl)c(Cl)cc3[nH]c(CO)nc23)ccn1 [I-382]	100 to 300 µM	C (an affinity (R3/R0)<20%)
OCc1cc(Sc2ccc(Cl)cc2)c2cc[nH]c2c1 [I-198, (4-(4-chlorophenylthio)-1H-indol-6-yl)methanol]	10 to 100 µM	B (an affinity (R3/R0) between 100% and 20%)
CN(C)C(=O)c1ccc(Cn2c(C(=O)O)cc3c4ccccc4c(Sc4ccc(Cl)c(Cl)c4)cc32)cc1 [I-9, 5-(3,4-dichlorophenylthio)-3-(4-(dimethylcarbamoyl)benzyl)-3H-benzo[e]indole-2-carboxylic acid]	< 10 µM	A (an affinity (R3/R0)>100%)
O=C(O)c1cc2c(Sc3ccc(Cl)c(Cl)c3)cc(Sc3ccc(Cl)c(Cl)c3)cc2[nH]1 [I-88, 4,6-bis(3,4-dichlorophenylthio)-1H-indole-2-carboxylic acid]	< 10 µM	B (an affinity (R3/R0) between 100% and 20%)
O=C(O)c1cc2c(Cl)cc(Oc3ccccc3)cc2n1Cc1c[nH]cn1 [I-173, 1-((1H-imidazol-4-yl)methyl)-4-chloro-6-phenoxy-1H-indole-2-carboxylic acid]	10 to 100 µM	C (an affinity (R3/R0)<20%)
Cc1cc(Sc2ccc(Cl)cc2)c2cc(C(=O)O)[nH]c2c1C [I-58, 4-(4-chlorophenylthio)-6,7-dimethyl-1H-indole-2-carboxylic acid]	10 to 100 µM	B (an affinity (R3/R0) between 100% and 20%)
CN(C)C(=O)c1ccc(Cn2c(C(=O)O)cc3c(Cl)nc(Sc4ccc(Cl)c(Cl)c4)cc32)cc1 [I-4, 4-chloro-6-(3,4-dichlorophenylthio)-1-(4-(dimethylcarbamoyl)benzyl)-1H-pyrrolo[3,2-c]pyridine-2-carboxylic acid]	10 to 100 µM	B (an affinity (R3/R0) between 100% and 20%)
Clc1ccc(Cl)c(Oc2cccc3[nH]ccc23)c1 [I-251, 4-(2,5-Dichlorophenoxy)-1H-indole]	10 to 100 µM	C (an affinity (R3/R0)<20%)
CC(O)c1cc2c(Oc3ccccc3)cc(Cl)cc2[nH]1 (centres unmarked) [I-186, 1-(6-Chloro-4-phenoxy-1H-indol-2-yl)ethanol]	10 to 100 µM	B (an affinity (R3/R0) between 100% and 20%)
CN(C)c1cc(-c2nc3cc(Cl)c(Cl)cc3[nH]2)ccn1 [I-351]	> 100 µM	A (an affinity (R3/R0)>100%)
O=C(O)c1cc2c(Oc3ccc(C4CCCCC4)cc3)cc(Cl)cc2[nH]1 [I-125, 6-chloro-4-(4-cyclohexylphenoxy)-1H-indole-2-carboxylic acid]	< 10 µM	B (an affinity (R3/R0) between 100% and 20%)
